Results reported in PubChem BioAssay AID588771 (The Scripps Research Institute Molecular Screening Center, 2011).
Calls of active or inactive are those of the source. The rule behind the calls is not given here.

The compounds below were run against 3C-like protease (3CLpro), SARS coronavirus (assay: SARS 3CLpro protease inhibitor potency, late-stage follow-up, biochemical, fluorescence, dose response, set 3 (AID 588771)). Conditions: purified 3CLpro, fluorogenic substrate cleavage.
Work on `CC(C)C(=O)Nc1ccc(N(C(=O)Cn2nnc3ccccc32)C(C(=O)NCc2ccccc2)c2cccc(F)c2)cc1` (stereo not given) yielded an IC50 of 4.1 µM. For `Cn1cnc(C(=O)N(c2ccc(C(C)(C)C)cc2)C(C(=O)NC(C)(C)C)c2cccnc2)c1` (stereo not given), the IC50 was “inactive”. With `CC(C)(C)NC(=O)C(c1cccnc1)N(C(=O)c1ccco1)c1ccc(Cc2ccccc2)cc1` (stereo not given) the IC50 was “inactive”. `O=C(Nc1ccc(N(C(=O)Cn2nnc3ccccc32)C(C(=O)NCc2ccccc2)c2cccc(F)c2)cc1)C1CCC1` (stereo not given) was tested, and the IC50 was 2.3 µM. In the case of `CC(C)(C)NC(=O)[C@@H](c1cccnc1)N(C(=O)c1cnc[nH]1)c1ccc(C(C)(C)C)cc1`, the IC50 is reported as “inactive”. Compound `CC(C)(C)NC(=O)C(c1cnccn1)N(C(=O)c1ccco1)c1ccc(C(C)(C)C)cc1` (stereo not given) has an IC50 of 5.5 µM. `CC(C)(C)NC(=O)C(c1ccnnc1)N(C(=O)c1ccco1)c1ccc(C(C)(C)C)cc1` (stereo not given) was tested, and the IC50 was “inactive”. `O=C(Nc1ccc(N(C(=O)Cn2nnc3ccccc32)C(C(=O)NCc2ccccc2)c2cccc(F)c2)cc1)C1CC1` (stereo not given) gave an IC50 of 3 µM. For `CC(C)(C)NC(=O)C(c1ccncc1)N(C(=O)c1ccco1)c1ccc(C(C)(C)C)cc1` (stereo not given), the IC50 was “inactive”. In the case of `CC(C)(C)NC(=O)[C@H](c1cccnc1)N(C(=O)c1cnc[nH]1)c1ccc(C(C)(C)C)cc1`, the IC50 is reported as 4.5 µM.
